Assay results reported in patent publication US4657918A, “3-[6-[3-pyrrolidino-1-(4-tolyl)prop-1e-enyl]-2-pyridyl]propionic acid and derivatives having anti-histaminic activity” (priority 1982, dated 1987).

Legend:
[1] = background statement; cited from earlier work
H1 histamine receptor = target: T1, H1 histamine receptor (Cavia porcellus, UniProt P31389); assay: In vitro antihistaminic activity, isolated guinea-pig ileum longitudinal muscle, histamine concentration-response shift (Schild plot); assay type: cell-based; conditions: negative log of the molar concentration of antagonist which shifts the histamine concentration-response curve 2X to the right, 1 h incubation, read-out: pA2 (converted)
T1 construct: The longitudinal muscle was isolated from the intact ileum of guinea-pigs; from tissue; host or cells: guinea-pig ileum, longitudinal muscle (Hartly, male 250-400 g)
T1 sequence (P31389 whole entry): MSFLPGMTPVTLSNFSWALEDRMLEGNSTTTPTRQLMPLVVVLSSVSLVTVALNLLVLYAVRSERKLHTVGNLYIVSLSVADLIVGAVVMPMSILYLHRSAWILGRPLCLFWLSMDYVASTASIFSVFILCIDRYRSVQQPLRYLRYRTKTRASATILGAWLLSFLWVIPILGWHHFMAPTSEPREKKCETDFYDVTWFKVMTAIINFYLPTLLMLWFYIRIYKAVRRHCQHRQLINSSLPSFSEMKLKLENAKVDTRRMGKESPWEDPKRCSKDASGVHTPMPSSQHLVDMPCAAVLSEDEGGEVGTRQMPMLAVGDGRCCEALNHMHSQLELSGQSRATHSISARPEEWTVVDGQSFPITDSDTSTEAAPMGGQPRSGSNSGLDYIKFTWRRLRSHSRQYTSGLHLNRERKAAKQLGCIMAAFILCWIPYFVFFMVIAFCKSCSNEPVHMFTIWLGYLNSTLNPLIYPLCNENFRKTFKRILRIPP
Procedure: In vitro antihistiminic activity: The longitudinal muscle was isolated from the intact ileum of guinea-pigs (Hartly, male 250-400 g) and placed in an organ bath under 300 mg tension. After one hour of equilibration, cumulative concentration-response curves (Van Rossum, J. M., Arch. Int. Pharmacodyn. Ther. 143, 299-330, 1963) to histamine were obtained. Following washing, the tissues were incubated for one hour with the test compound and then a second histamine concentration-response curve was run. Shifts to the right of the agonist concentration-response curve produced by the antagonists were used to construct Schild plots (Arunlakshana, O. and Schild, H. O., Br. J. Pharmacol: 14, 48-58, 1959). Regression of Log (dr-1) on Log [B], where dr is an equiactive response in the presence and absence of antagonist and [B] is the molar concentration of antagonist, allowed an estimate of pA2, i.e. the negative log of the concentration of antagonist which shifts the control histamine concentration-response curve 2X to the right.

[2] = antihistamines now in use; some patients; cited from earlier work

Row | Kb (H1 histamine receptor) | SMILES | other results
1 | – | Cc1ccc(/C(=C\CN2CCCC2)c2ccccn2)cc1 [Triprolidine, (E)-1-(4-methylphenyl)-1-(2-pyridyl)-3-pyrrolidinoprop-1-ene] | antihistamine potency [1]: one of the most potent antihistamines available
2 | 1 nM | O=C(O)/C=C/c1cccc(/C(=C/CN2CCCC2)c2ccc(Cl)cc2)n1 [D, (E)-3-{6-[1-(4-chlorophenyl)-3-pyrrolidinoprop-1E-enyl]-2-pyridyl}acrylicacid] | –
3 | 6.31 nM | Cc1ccc(/C(=C\CN(C)C)c2cccc(/C=C/C(=O)O)n2)cc1 [Compound B, (E)-3-{6-[3-Dimethylamino-1-(4-tolyl)prop-1E-enyl]-2-pyridyl}acrylic acid] | –
4 | 39.8 nM | O=C(O)/C=C/c1cccc(/C(=C/CN2CCCC2)c2ccccc2)n1 [E, (E)-3-[6-(1-phenyl-3-pyrrolidinoprop-1E-enyl)-2-pyridyl]acrylic acid] | –
5 | 1.26 nM | Cc1ccc(/C(=C\CN2CCCC2)c2cccc(C(=O)O)n2)cc1 [F, 6-[3-pyrrolidino-1-(4-tolyl)prop-1E-enyl]pyridine-2-carboxylic acid] | –
6 | 0.631 nM | Cc1ccc(/C(=C\CN2CCCC2)c2cccc(CCC(=O)O)n2)cc1 [Compound A, 3-{6-[3-Pyrrolidino-1-(4-tolyl)prop-1E-enyl]-2-pyridyl}propionic acid] | –
7 | 1.26 nM | COc1ccc(/C(=C\CN2CCCC2)c2cccc(/C=C/C(=O)O)n2)cc1 [C, (E)-3-{6-[3-pyrrolidino-1-(4-methoxyphenyl)prop-1E-enyl]-2-pyridyl}acrylicacid] | –
8 | – | CC(CN1c2ccccc2Sc2ccccc21)N(C)C (centres unmarked) [promethazine] | sedation or drowsiness [2]: may cause sedation or drowsiness in some patients
